Assay results: patent US9949961B2, “Agent for the prophylaxis and/or treatment of neoplastic diseases” (priority 2013, dated 2018)

What was measured:
[1] = tested on: hepatic tumors induced by DENA; experiment: Preventive effect on hepatic neoplasms induced by N-diethyl nitrosamine (DENA) in rats; type: in vivo, male Wistar rats; settings: for Preventive effect in relation to hepatic tumors: 25 mg/kg a day, DENA carcinogenesis in rats; for Weight of rats / Number of animals with induced tumors / Number of hepatic tumors: 25 mg/kg/day in drinking water, DENA 30 mg/kg/week i.p.; for Weight of rats: from 3 weeks prior to DENA and then 2.5 months; for Number of animals with induced tumors: 16 animals in group; for Number of hepatic tumors: counted visually on liver surface
Method: The efficacy of preventive effects of Products 1 and 2 in relation to hepatic neoplasms was shown in the experiment on male Wistar rats which were intraperitoneally administered with chemical carcinogen-N-diethyl nitrosamine (DENA) (Nitrosodiethylamin (N—N)). The nature of the invention is explained with the execution example.
To solve the task, 3 groups of male Wistar rats weighing 150-200 g were formed, 16 in each. Rats of the control group were administered intraperitoneally with DENA in dose 30 mg/kg/week. The dosage was administered in 2 doses: Monday and Thursday. The animals of test groups were similarly administered with DENA. Rats of test groups took drinking water in addition to Products 1 and 2 assuming that they took 25 mg/kg of body weight/day with water. The animals started taking the products 3 weeks prior administration of N-diethyl nitrosamine to develop protective background in animal body and subsequently for 2.5 months.
During the experiment, weight of rats was controlled. After autopsy of animals, liver was weighted, tumors were visually counted on its surface and photographed.

[2] = tested on: Lewis carcinoma; experiment: Anti-neoplastic and anti-metastatic activity in mice with Lewis carcinoma implanted to the paw; type: in vivo, male mice F1 (CBA×C57B1/6); settings: for Number of lung metastases: day 21 after tumor implantation; for Growth of Lewis carcinoma in mice: 5 and 25 mg/kg, inhibition is dose-related
Method: The efficacy of anti-neoplastic (anti-proliferative) and anti-metastatic properties of products 1 and 2 was shown in the experiment on male mice F1 (CBA×CS7B1/6) with Lewis carcinoma implanted to the paw following intragastric administration in two doses: 5 mg/kg and 25 mg/kg for 3 weeks immediately after implantation and within 1 week prior tumor transplantation.
Test system. To examine anti-neoplastic (anti-proliferative) and anti-metastatic properties of products 1 and 2, 120 hybrid male mice of the first generation CBA×[…] were used: each group of 10-12 mice. Lewis carcinoma was implanted to a hind paw, in the amount ˜10^6 cells (˜0.2 cm^3) Doses and dosing schemes for products 1 and 2. Route of the product administration—per os provided addition of products 1 and 2 to drinking water which was given to animals. Products 1 and 2 were added to drinking water by two schemes: within 3 weeks immediately after implantation and within 4 weeks with the dosing started prior implantation.
Anti-neoplastic (anti-proliferative) and anti-metastatic activity of products 1 and 2 was assessed based on change of tumor volume and number of lung metastases. The number of metastases was assessed on day 21 after tumor implantation (day 28 after the administration of products 1 and 2 by the 1-st scheme). For that, lungs were withdrawn in animals decapitated under anesthesia and transferred to Bouin's fluid. Metastases were visually counted. The volume of neoplasm was assessed by ellipsoid equation (1). […]
[formula] where: d1, d2, d3—mutually perpendicular tumor sizes.

[3] = tested on: neuroblastoma N2A cell culture; settings: cited from earlier work
[4] = 5 mg/kg per os in drinking water, after implantation (scheme 2), day 1
[5] = 5 mg/kg per os in drinking water, after implantation (scheme 2), day 7
[6] = 5 mg/kg per os in drinking water, after implantation (scheme 2), day 15
[7] = 5 mg/kg per os in drinking water, prior and after implantation (scheme 1), day 1
[8] = 5 mg/kg per os in drinking water, prior and after implantation (scheme 1), day 7
[9] = 5 mg/kg per os in drinking water, prior and after implantation (scheme 1), day 15
[10] = 5 mg/kg, after implantation (scheme 2)
[11] = 5 mg/kg, prior and after implantation (scheme 1)
[12] = 25 mg/kg per os in drinking water, after implantation (scheme 2), day 1
[13] = 25 mg/kg per os in drinking water, after implantation (scheme 2), day 7
[14] = 25 mg/kg per os in drinking water, after implantation (scheme 2), day 15
[15] = 25 mg/kg per os in drinking water, prior and after implantation (scheme 1), day 1
[16] = 25 mg/kg per os in drinking water, prior and after implantation (scheme 1), day 7
[17] = 25 mg/kg per os in drinking water, prior and after implantation (scheme 1), day 15
[18] = 25 mg/kg, after implantation (scheme 2)
[19] = 25 mg/kg, prior and after implantation (scheme 1)

Structure (SMILES) | Preventive effect in relation to hepatic tumors [1] | Weight of rats [1] [g] | Number of animals with induced tumors [1] | Number of hepatic tumors [1] | Tumor volume [2, 4] [mm^3] | Tumor volume [2, 5] [mm^3] | Tumor volume [2, 6] | Tumor volume [2, 7] [mm^3] | Tumor volume [2, 8] [mm^3] | Tumor volume [2, 9] | Number of lung metastases [2, 10] | Number of lung metastases [2, 11] | Tumor volume [2, 12] [mm^3] | Tumor volume [2, 13] [mm^3] | Tumor volume [2, 14] | Tumor volume [2, 15] [mm^3] | Tumor volume [2, 16] [mm^3] | Tumor volume [2, 17] | Number of lung metastases [2, 18] | Number of lung metastases [2, 19] | further results
O=C1CSC(=S)N1CCc1ccccc1 [Product 1] | have preventive effect | 146.4 ± 3.57 | 15 | 15.1 ± 2.88 | 52 ± 17 | 708 ± 86 | 1826 ± 196 (P < 0.05) mm^3 | 40 ± 15 | 715 ± 103 | 1597 ± 133 (P < 0.01)^2 mm^3 | 32.8 ± 8.1 | 42.2 ± 7.1 | 60 ± 19 | 812 ± 153 | 1437 ± 325 (P < 0.01) mm^3 | 101 ± 29 | 671 ± 104 | 1225 ± 214 (P < 0.01) mm^3 | 20.3 ± 4.2 (P < 0.01)^2 | 33.1 ± 9.1 | Growth of Lewis carcinoma in mice [2]: able to inhibit growth; Anti-proliferative effect [3]: anti-proliferative effect
O=C1CSC(=S)N1CCc1ccncc1 [Product 2] | have preventive effect | 145.9 ± 1.26 | 15 | 16.6 ± 3.12 | 49 ± 15 | 702 ± 92 | 1806 ± 203 (P < 0.05) mm^3 | 39 ± 13 | 706 ± 99 | 1588 ± 127 (P < 0.01)^3 mm^3 | 33.3 ± 7.8 | 43.4 ± 6.5 | 70 ± 14 | 827 ± 140 | 1459 ± 299 (P < 0.01) mm^3 | 98 ± 95 | 650 ± 97 | 1204 ± 226 (P < 0.01) mm^3 | 19.0 ± 5.1 (P < 0.01)^3 | 34.2 ± 8.9 | Growth of Lewis carcinoma in mice [2]: able to inhibit growth
